# Laboratory results reported in patent US8962637B2, “Bicyclic compounds and their uses as dual c-SRC/JAK inhibitors” (Debiopharm S.A., priority 2010, dated 2015).
# Experiments:
# [1] = target: JAK2 (Homo sapiens (Human), UniProt O60674); test: TR-FRET JAK2 kinase assay; assay type: biochemical; conditions: ATP 10 μM; for inhibition at 0.1 µM: read-out: JAK2 % inhibition at 100 nM, 100 nM; for inhibition at 1 µM: read-out: JAK2 % inhibition at 1 μM
# Experimental: (§1) Compounds were screened in the TR-FRET assay for JAK2 and c-Src kinase inhibition. Ultra light poly GT (Perkin Elmer) was used as the substrate for JAK2 and c-Src with the ATP concentration of 10 μM and 50 μM, respectively. […] The dose-response curve fitting was done using GraphPad Prism software.
# [2] = target: c-Src (Homo sapiens (Human), UniProt P12931); test: TR-FRET c-Src kinase assay; assay type: biochemical; conditions: ATP 50 μM; for inhibition at 0.1 µM: read-out: c-SRC % inhibition at 100 nM, 100 nM; for inhibition at 1 µM: read-out: c-SRC % inhibition at 1 μM
# Sequence of c-Src (P12931 whole entry, looked up): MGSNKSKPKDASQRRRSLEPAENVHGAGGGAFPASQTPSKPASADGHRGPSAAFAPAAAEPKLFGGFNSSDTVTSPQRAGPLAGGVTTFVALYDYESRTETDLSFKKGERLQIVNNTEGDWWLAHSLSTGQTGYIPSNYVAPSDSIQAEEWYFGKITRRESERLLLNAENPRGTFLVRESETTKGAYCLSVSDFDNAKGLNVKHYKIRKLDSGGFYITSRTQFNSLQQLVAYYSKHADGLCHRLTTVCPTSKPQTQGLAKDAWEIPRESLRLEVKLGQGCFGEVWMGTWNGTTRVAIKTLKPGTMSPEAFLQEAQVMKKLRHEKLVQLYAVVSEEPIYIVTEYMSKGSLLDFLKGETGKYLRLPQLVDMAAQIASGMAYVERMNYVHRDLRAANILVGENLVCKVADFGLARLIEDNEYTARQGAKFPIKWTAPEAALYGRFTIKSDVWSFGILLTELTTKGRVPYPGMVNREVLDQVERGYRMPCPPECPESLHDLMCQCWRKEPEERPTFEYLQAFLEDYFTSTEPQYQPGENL
# Experimental: as §1
# [3] = system: Mda-Mb-231 cells; test: Cell viability assay (XTT assay), Mda-Mb-231; assay type: cell-based; conditions: Homo sapiens, 72 hrs
# Experimental: Mda-Mb-231 or A549 cells were seeded onto a 96-well micro plate. Next day compounds were added to cells and incubated for 72 hrs. Compound treatment was done in triplicates. After 72 hrs cell culture media was aspirated from the wells and XTT working solution was added and plates were incubated for 2-5 hrs. The absorbance of the samples was measured with a spectrophotometer at a wavelength of 465 nm. EC50 values were calculated using Graphpad Prism. Tumor cell lines used in the examples of the present invention were procured from ATCC. Description of the cell lines is included in the following table: […]
# [4] = system: pStat3; test: In-Cell-Western blot assay for pStat3 (ICW) in A431 cells; assay type: cell-based; conditions: Homo sapiens, A-431, 2 hrs, read-out: pSTAT3 inhibition
# Experimental: A431 cells were seeded onto a 96-well micro plate. After overnight serum starvation cells were incubated with compounds for 2 hrs. Cells were fixed with 4% paraformaldehyde in PBS and then permeabilized with 0.1% Triton X-100 in PBS (PBST). Cells were blocked with 5% BSA in PBST for 2 hrs, followed by overnight incubation with phospho Stat3 antibody. Cells were washed and incubated with europium-labeled anti-rabbit secondary antibody for 2 hrs. After washing enhancement solution was added to the wells. The micro-plate was read on the Victor instrument at the Europium setting. The Hoechst readings were used to normalize for cell number. IC50 values were calculated with the normalized europium values using Graphpad Prism.
# Sequence of JAK2 (O60674 whole entry): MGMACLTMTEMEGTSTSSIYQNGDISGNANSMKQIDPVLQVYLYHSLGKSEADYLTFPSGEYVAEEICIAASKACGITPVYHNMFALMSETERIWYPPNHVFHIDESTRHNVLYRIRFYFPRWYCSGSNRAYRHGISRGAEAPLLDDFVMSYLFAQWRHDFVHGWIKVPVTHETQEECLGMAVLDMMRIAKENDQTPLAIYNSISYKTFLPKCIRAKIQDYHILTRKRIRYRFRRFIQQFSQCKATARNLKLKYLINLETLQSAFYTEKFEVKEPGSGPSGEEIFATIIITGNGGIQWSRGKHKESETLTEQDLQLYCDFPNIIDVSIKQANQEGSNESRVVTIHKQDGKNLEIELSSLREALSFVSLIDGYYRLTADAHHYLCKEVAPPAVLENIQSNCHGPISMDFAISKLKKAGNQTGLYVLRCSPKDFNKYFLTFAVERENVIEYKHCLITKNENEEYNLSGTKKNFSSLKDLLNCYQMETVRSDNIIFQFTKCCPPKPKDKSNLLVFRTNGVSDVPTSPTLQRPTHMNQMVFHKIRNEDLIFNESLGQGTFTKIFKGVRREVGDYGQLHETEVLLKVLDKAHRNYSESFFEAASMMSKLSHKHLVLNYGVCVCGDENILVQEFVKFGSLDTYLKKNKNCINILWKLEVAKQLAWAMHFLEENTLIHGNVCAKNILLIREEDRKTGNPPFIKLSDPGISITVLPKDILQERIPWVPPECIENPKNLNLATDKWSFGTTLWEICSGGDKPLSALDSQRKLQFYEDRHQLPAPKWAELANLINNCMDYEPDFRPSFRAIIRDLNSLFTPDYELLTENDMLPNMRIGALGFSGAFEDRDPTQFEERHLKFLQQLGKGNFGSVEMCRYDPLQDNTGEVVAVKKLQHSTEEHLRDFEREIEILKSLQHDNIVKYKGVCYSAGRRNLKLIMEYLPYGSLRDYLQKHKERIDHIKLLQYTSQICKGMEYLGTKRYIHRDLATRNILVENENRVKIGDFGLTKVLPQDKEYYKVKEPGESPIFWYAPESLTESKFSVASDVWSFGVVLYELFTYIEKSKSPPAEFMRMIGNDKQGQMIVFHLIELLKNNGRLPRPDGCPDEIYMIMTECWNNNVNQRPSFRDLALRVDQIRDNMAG
SMILES,IC50 [1],IC50 [2],EC50 [3],inhibition at 0.1 µM [1],inhibition at 1 µM ([1]; 1 μM),inhibition at 0.1 µM [2],inhibition at 1 µM [2],IC50 [4],JAK2 % inhibition at 1 μM ([1]; 1 μM)
"Cc1ccc(NC(=O)c2cccc(Br)c2)cc1N1CCc2nc(Nc3ccc(N4CCN(C)CC4)cc3)ncc2C1=O [Compound 58, 3-Bromo-N-(4-methyl-3-{2-[4-(4-methyl-piperazin-1-yl)-phenylamino]-5-oxo-7,8-dihydro-5H-pyrido[4,3-d]pyrimidin-6-yl}-phenyl)-benzamide]",44 nM,19 nM,3820 nM,,,,,,
"Cc1ccc(NC(=O)CC2CCCC2)cc1N1CCc2nc(Nc3ccc(OCCN4CCCC4)cc3)ncc2C1 [Compound 108, 2-Cyclopentyl-N-(4-methyl-3-{2-[4-(2-pyrrolidin-1-yl-ethoxy)-phenylamino]-7,8-dihydro-5H-pyrido[4,3-d]pyrimidin-6-yl}-phenyl)-acetamide]",12 nM,1 nM,2600 nM,89%,98%,98%,100%,,
"Cc1ccc(NC(=O)c2cccc(C(F)(F)F)c2)cc1N1CCc2nc(Nc3ccc(C(N)=O)nc3)ncc2C1 [Compound 119, 5-{6-[2-Methyl-5-(3-trifluoromethyl-benzoylamino)-phenyl]-5,6,7,8-tetrahydro-pyrido[4,3-d]pyrimidin-2-ylamino)-pyridine-2-carboxylic acid amide]",8 nM,,380 nM,,,95%,98%,280 nM,
"Cc1ccc(NC(=O)c2cc(Cl)cc(C(F)(F)F)c2)cc1N1CCc2nc(Nc3ccc(N4CCN(C)CC4)cc3)ncc2C1=O [Compound 120, 3-Chloro-N-(4-methyl-3-{2-[4-(4-methyl-piperazin-1-yl)-phenylamino]-5-oxo-7,8-dihydro-5H-pyrido[4,3-d]pyrimidin-6-yl}-phenyl)-5-trifluoromethyl-benzamide]",36 nM,,2500 nM,,,94%,95%,,
"Cc1ccc(NC(=O)CC(C)C(F)(F)F)cc1N1CCc2nc(Nc3ccc(N4CCN(C)CC4)cc3)ncc2C1 (centres unmarked) [Compound 123, 4,4,4-Trifluoro-3-methyl-N-(4-methyl-3-{2-[4-(4-methyl-piperazin-1-yl)-phenylamino]-7,8-dihydro-5H-pyrido[4,3-d]pyrimidin-6-yl}-phenyl)-butyramide]",9 nM,3 nM,830 nM,,,,,190 nM,
"Cc1ccc(NC(=O)c2cc(C(F)(F)F)ccn2)cc1N1CCc2nc(Nc3ccc(N4CCN(C)CC4)cc3)ncc2C1 [Compound 146, 4-Trifluoromethyl-pyridine-2-carboxylic acid (4-methyl-3-{2-[4-(4-methyl-piperazin-1-yl)-phenylamino]-7,8-dihydro-5H-pyrido[4,3-d]pyrimidin-6-yl}-phenyl)-amide]",5 nM,6 nM,370 nM,,,,,350 nM,
"Cc1ccc(NC(=O)c2cccc(C(F)(F)F)c2)cc1N1CCc2nc(Nc3ccc(C(=O)NC4CCN(C)CC4)nc3)ncc2C1 [Compound 148, 5-{6-[2-Methyl-5-(3-trifluoromethyl-benzoylamino)-phenyl]-5,6,7,8-tetrahydro-pyrido[4,3-d]pyrimidin-2-ylamino}-pyridine-2-carboxylic acid (1-methyl-piperidin-4-yl)-amide]",,2.4 nM,34 nM,,,99%,99%,270 nM,
"Cc1ccc(NC(=O)NC2CCCC2)cc1N1CCc2nc(Nc3ccc(OCCN4CCCC4)cc3)ncc2C1 [Compound 153, 1-Cyclopentyl-3-(4-methyl-3-{2-[4-(2-pyrrolidin-1-yl-ethoxy)-phenylamino]-7,8-dihydro-5H-pyrido[4,3-d]pyrimidin-6-yl}-phenyl)-urea]",4 nM,,610 nM,,,98%,99%,,
"Cc1ccc(NC(=O)CC(C)C(F)(F)F)cc1N1CCc2nc(Nc3ccc(OCCN4CCN(C)CC4)cc3)ncc2C1 (centres unmarked) [Compound 160, 4,4,4-Trifluoro-3-methyl-N-[4-methyl-3-(2-{4-[2-(4-methyl-piperazin-1-yl)-ethoxy]-phenylamino}-7,8-dihydro-5H-pyrido[4,3-d]pyrimidin-6-yl)-phenyl]-butyramide]",15 nM,66 nM,,,,,,,
"Cc1ccc(NC(=O)CCC(F)(F)F)cc1N1CCc2nc(Nc3ccc(C(=O)N4CCN(C)CC4)cc3)ncc2C1 [Compound 164, 4,4,4-Trifluoro-N-(4-methyl-3-{2-[4-(4-methyl-piperazine-1-carbonyl)-phenylamino]-7,8-dihydro-5H-pyrido[4,3-d]pyrimidin-6-yl}-phenyl)-butyramide]",46 nM,26 nM,,68%,91%,70%,79%,,
"Cc1ccc(NC(=O)c2cc(C(F)(F)F)ccn2)cc1N1CCc2nc(Nc3ccc(N4CCN(C)CC4)cc3)ncc2C1=O [Compound 166, 4-Trifluoromethyl-pyridine-2-carboxylic acid (4-methyl-3-{2-[4-(4-methyl-piperazin-1-yl)-phenylamino]-5-oxo-7,8-dihydro-5H-pyrido[4,3-d]pyrimidin-6-yl}-phenyl)-amide]",48 nM,27 nM,,74%,93%,60%,87%,,
"Cc1ccc(NC(=O)c2cc(C(F)(F)F)ccn2)cc1N1CCc2nc(Nc3ccc(C(=O)N4CCN(C)CC4)cc3)ncc2C1 [Compound 167, 4-Trifluoromethyl-pyridine-2-carboxylic acid (4-methyl-3-{2-[4-(4-methyl-piperazine-1-carbonyl)-phenylamino]-7,8-dihydro-5H-pyrido[4,3-d]pyrimidin-6-yl}-phenyl)-amide]",5.3 nM,27 nM,,95%,97%,97%,98%,283 nM,
"Cc1ccc(NC(=O)c2cc(C(F)(F)F)ccn2)cc1N1CCc2nc(Nc3ccc(C(=O)N4CCN(C)CC4)cc3)ncc2C1=O [Compound 170, 4-Trifluoromethyl-pyridine-2-carboxylic acid (4-methyl-3-{2-[4-(4-methyl-piperazine-1-carbonyl)-phenylamino]-5-oxo-7,8-dihydro-5H-pyrido[4,3-d]pyrimidin-6-yl}-phenyl)-amide]",70 nM,,,64%,93%,26%,58%,,
"CN1CCN(c2ccc(Nc3ncc4c(n3)CCN(c3cc(NC(=O)c5cc(F)cc(C(F)(F)F)c5)ccc3Cl)C4=O)cc2)CC1 [Compound 172, N-(4-Chloro-3-{2-[4-(4-methyl-piperazin-1-yl)-phenylamino]-5-oxo-7,8-dihydro-5H-pyrido[4,3-d]pyrimidin-6-yl]-phenyl)-3-fluoro-5-trifluoromethyl-benzamide]",,,1840 nM,94%,97%,66%,72%,,
"CN1CCN(c2ccc(Nc3ncc4c(n3)CCN(c3cc(NC(=O)c5cccc(C(F)(F)F)c5)ccc3Cl)C4)cc2)CC1 [Compound 174, N-(4-Chloro-3-{2-[4-(4-methyl-piperazin-1-yl)-phenylamino]-7,8-dihydro-5H-pyrido[4,3-d]pyrimidin-6-yl}-phenyl)-3-trifluoromethyl-benzamide]",,,,94%,97%,95%,98%,161 nM,
"CNC(=O)c1ccc(Nc2ncc3c(n2)CCN(c2cc(NC(=O)c4cccc(C(F)(F)F)c4)ccc2Cl)C3)cc1 [Compound 176, N-{4-Chloro-3-[2-(4-methylcarbamoyl-phenylamino)-7,8-dihydro-5H-pyrido[4,3-d]pyrimidin-6-yl]-phenyl}- -5-trifluoromethyl-benzamide]",15 nM,13 nM,330 nM,89%,94%,87%,96%,,
"CNC(=O)c1ccc(Nc2ncc3c(n2)CCN(c2cc(NC(=O)c4cc(F)cc(C(F)(F)F)c4)ccc2Cl)C3)cc1 [Compound 177, N-{4-Chloro-3-[2-(4-methylcarbamoyl-phenylamino)-7,8-dihydro-5H-pyrido[4,3-d]pyrimidin-6-yl]-phenyl}-3-fluoro-5-trifluoromethyl-benzamide]",,20 nM,120 nM,,,86%,96%,290 nM,
"Cc1nc(Nc2ncc(C(=O)Nc3c(C)cccc3Cl)s2)cc(N2CCN(CCO)CC2)n1 [Dasatinib, reference compound]",,,44 nM,,,,,,55%
